Measured values: patent US20240238242A1, “EGCG buccal tablet and use thereof” (priority 2023, published 2024)
Values joined by “and” are separate entries in the source; they are usually repeats but may differ in a detail not shown here. Identical values can stand only once. Like-named read-outs stand apart in the source and are kept apart here.

Test system: Influenza A H3N2 virus (H3N2)
Format: cell-based
Settings: for inactivation efficiency against the virus: single experiment

## O=C(O[C@@H]1Cc2c(O)cc(O)cc2O[C@@H]1c1cc(O)c(O)c(O)c1)c1cc(O)c(O)c(O)c1 [EGCG, Epigallocatechin gallate]
0.2 mM EGCG + H3N2 virus, 1 minute, third experiment, dilution factor 10^7
  CPE test, virus replication in cell wells 1-10: −
0.2 mM EGCG + H3N2 virus, 1 minute, third experiment, dilution factor 10^8
  CPE test, virus replication in cell wells 1-10: −
0.2 mM EGCG + H3N2 virus, 5 minute, first experiment, dilution factor 10^1
  CPE test, virus replication in cell wells 1-10: +
0.2 mM EGCG + H3N2 virus, 5 minute, first experiment, dilution factor 10^2
  CPE test, virus replication in cell wells 1-10: +
0.2 mM EGCG + H3N2 virus, 5 minute, first experiment, dilution factor 10^3
  CPE test, virus replication in cell wells 1-10: +
0.2 mM EGCG + H3N2 virus, 5 minute, first experiment, dilution factor 10^4
  CPE test, virus replication in cell wells 1-10: +
0.2 mM EGCG + H3N2 virus, 5 minute, first experiment, dilution factor 10^5
  CPE test, virus replication in cell wells 1-10: + and −
0.2 mM EGCG + H3N2 virus, 5 minute, first experiment, dilution factor 10^6
  CPE test, virus replication in cell wells 1-10: −
0.2 mM EGCG + H3N2 virus, 5 minute, first experiment, dilution factor 10^7
  CPE test, virus replication in cell wells 1-10: −
0.2 mM EGCG + H3N2 virus, 5 minute, first experiment, dilution factor 10^8
  CPE test, virus replication in cell wells 1-10: −
0.2 mM EGCG + H3N2 virus, 5 minute, second experiment, dilution factor 10^1
  CPE test, virus replication in cell wells 1-10: +
0.2 mM EGCG + H3N2 virus, 5 minute, second experiment, dilution factor 10^2
  CPE test, virus replication in cell wells 1-10: +
0.2 mM EGCG + H3N2 virus, 5 minute, second experiment, dilution factor 10^3
  CPE test, virus replication in cell wells 1-10: +
0.2 mM EGCG + H3N2 virus, 5 minute, second experiment, dilution factor 10^4
  CPE test, virus replication in cell wells 1-10: +
0.2 mM EGCG + H3N2 virus, 5 minute, second experiment, dilution factor 10^5
  CPE test, virus replication in cell wells 1-10: − and +
0.2 mM EGCG + H3N2 virus, 5 minute, second experiment, dilution factor 10^6
  CPE test, virus replication in cell wells 1-10: −
0.2 mM EGCG + H3N2 virus, 5 minute, second experiment, dilution factor 10^7
  CPE test, virus replication in cell wells 1-10: −
0.2 mM EGCG + H3N2 virus, 5 minute, second experiment, dilution factor 10^8
  CPE test, virus replication in cell wells 1-10: −
0.2 mM EGCG, H3N2 virus, 1 minute
  residual virus titer of EGCG+virus group (Karber method): 10^5 TCID50/50 μL
0.2 mM EGCG, H3N2 virus, 1 minute, three experiments
  average inactivation efficiency against virus: 28.93%
0.2 mM EGCG, H3N2 virus, 5 minutes
  inactivation efficiency against the virus: 84.15%
0.2 mM EGCG, H3N2 virus, 5 minutes, two experiments
  average inactivation efficiency against virus: 76.27%
1 mM EGCG + H3N2 virus, 1 minute, first experiment, dilution factor 10^2
  CPE test, virus replication in cell wells (wells 1-10): +
1 mM EGCG + H3N2 virus, 1 minute, first experiment, dilution factor 10^3
  CPE test, virus replication in cell wells (wells 1-10): +
1 mM EGCG + H3N2 virus, 1 minute, first experiment, dilution factor 10^4
  CPE test, virus replication in cell wells (wells 1-10): +
1 mM EGCG + H3N2 virus, 1 minute, first experiment, dilution factor 10^5
  CPE test, virus replication in cell wells (wells 1-10): + and −
1 mM EGCG + H3N2 virus, 1 minute, first experiment, dilution factor 10^6
  CPE test, virus replication in cell wells (wells 1-10): −
1 mM EGCG + H3N2 virus, 1 minute, first experiment, dilution factor 10^7
  CPE test, virus replication in cell wells (wells 1-10): −
1 mM EGCG + H3N2 virus, 1 minute, first experiment, dilution factor 10^8
  CPE test, virus replication in cell wells (wells 1-10): −
1 mM EGCG + H3N2 virus, 1 minute, second experiment, dilution factor 10^1
  CPE test, virus replication in cell wells (wells 1-10): +
1 mM EGCG + H3N2 virus, 1 minute, second experiment, dilution factor 10^2
  CPE test, virus replication in cell wells (wells 1-10): +
1 mM EGCG + H3N2 virus, 1 minute, second experiment, dilution factor 10^3
  CPE test, virus replication in cell wells (wells 1-10): +
1 mM EGCG + H3N2 virus, 1 minute, second experiment, dilution factor 10^4
  CPE test, virus replication in cell wells (wells 1-10): + and −
1 mM EGCG + H3N2 virus, 1 minute, second experiment, dilution factor 10^5
  CPE test, virus replication in cell wells (wells 1-10): + and −
1 mM EGCG + H3N2 virus, 1 minute, second experiment, dilution factor 10^6
  CPE test, virus replication in cell wells (wells 1-10): −
1 mM EGCG + H3N2 virus, 1 minute, second experiment, dilution factor 10^7
  CPE test, virus replication in cell wells (wells 1-10): −
1 mM EGCG + H3N2 virus, 1 minute, second experiment, dilution factor 10^8
  CPE test, virus replication in cell wells (wells 1-10): −
1 mM EGCG + H3N2 virus, 1 minute, third experiment, dilution factor 10^2
  CPE test, virus replication in cell wells 1-10: +
1 mM EGCG + H3N2 virus, 1 minute, third experiment, dilution factor 10^3
  CPE test, virus replication in cell wells 1-10: +
1 mM EGCG + H3N2 virus, 1 minute, third experiment, dilution factor 10^4
  CPE test, virus replication in cell wells 1-10: +
1 mM EGCG + H3N2 virus, 1 minute, third experiment, dilution factor 10^5
  CPE test, virus replication in cell wells 1-10: − and +
1 mM EGCG + H3N2 virus, 1 minute, third experiment, dilution factor 10^6
  CPE test, virus replication in cell wells 1-10: −
1 mM EGCG + H3N2 virus, 1 minute, third experiment, dilution factor 10^7
  CPE test, virus replication in cell wells 1-10: −
1 mM EGCG + H3N2 virus, 1 minute, third experiment, dilution factor 10^8
  CPE test, virus replication in cell wells 1-10: −
1 mM EGCG + H3N2 virus, 5 minute, first experiment, dilution factor 10^3
  CPE test, virus replication in cell wells 1-10: − and +
1 mM EGCG + H3N2 virus, 5 minute, first experiment, dilution factor 10^4
  CPE test, virus replication in cell wells 1-10: + and −
1 mM EGCG + H3N2 virus, 5 minute, first experiment, dilution factor 10^5
  CPE test, virus replication in cell wells 1-10: −
1 mM EGCG + H3N2 virus, 5 minute, first experiment, dilution factor 10^6
  CPE test, virus replication in cell wells 1-10: −
1 mM EGCG + H3N2 virus, 5 minute, first experiment, dilution factor 10^7
  CPE test, virus replication in cell wells 1-10: −
1 mM EGCG + H3N2 virus, 5 minute, first experiment, dilution factor 10^8
  CPE test, virus replication in cell wells 1-10: −
1 mM EGCG + H3N2 virus, 5 minute, second experiment, dilution factor 10^3
  CPE test, virus replication in cell wells 1-10: −
1 mM EGCG + H3N2 virus, 5 minute, second experiment, dilution factor 10^4
  CPE test, virus replication in cell wells 1-10: −
1 mM EGCG + H3N2 virus, 5 minute, second experiment, dilution factor 10^5
  CPE test, virus replication in cell wells 1-10: −
1 mM EGCG + H3N2 virus, 5 minute, second experiment, dilution factor 10^6
  CPE test, virus replication in cell wells 1-10: −
1 mM EGCG + H3N2 virus, 5 minute, second experiment, dilution factor 10^7
  CPE test, virus replication in cell wells 1-10: −
1 mM EGCG + H3N2 virus, 5 minute, second experiment, dilution factor 10^8
  CPE test, virus replication in cell wells 1-10: −
1 mM EGCG, H3N2 virus, 1 minute, three experiments
  average inactivation efficiency against virus: 61.78%
1 mM EGCG, H3N2 virus, 5 minutes
  inactivation efficiency against the virus: 99.50% and 99.87%
1 mM EGCG, H3N2 virus, 5 minutes, two experiments
  average inactivation efficiency against virus: 99.69%
5 mM EGCG + H3N2 virus, 1 minute, first experiment, dilution factor 10^4
  CPE test, virus replication in cell wells (wells 1-10): −
5 mM EGCG + H3N2 virus, 1 minute, first experiment, dilution factor 10^5
  CPE test, virus replication in cell wells (wells 1-10): −
5 mM EGCG + H3N2 virus, 1 minute, first experiment, dilution factor 10^6
  CPE test, virus replication in cell wells (wells 1-10): −
5 mM EGCG + H3N2 virus, 1 minute, first experiment, dilution factor 10^7
  CPE test, virus replication in cell wells (wells 1-10): −
5 mM EGCG + H3N2 virus, 1 minute, first experiment, dilution factor 10^8
  CPE test, virus replication in cell wells (wells 1-10): −
5 mM EGCG + H3N2 virus, 1 minute, second experiment, dilution factor 10^3
  CPE test, virus replication in cell wells (wells 1-10): +
5 mM EGCG + H3N2 virus, 1 minute, second experiment, dilution factor 10^4
  CPE test, virus replication in cell wells (wells 1-10): −
5 mM EGCG + H3N2 virus, 1 minute, second experiment, dilution factor 10^5
  CPE test, virus replication in cell wells (wells 1-10): −
5 mM EGCG + H3N2 virus, 1 minute, second experiment, dilution factor 10^6
  CPE test, virus replication in cell wells (wells 1-10): −
5 mM EGCG + H3N2 virus, 1 minute, second experiment, dilution factor 10^7
  CPE test, virus replication in cell wells (wells 1-10): −
5 mM EGCG + H3N2 virus, 1 minute, second experiment, dilution factor 10^8
  CPE test, virus replication in cell wells (wells 1-10): −
5 mM EGCG + H3N2 virus, 1 minute, third experiment, dilution factor 10^4
  CPE test, virus replication in cell wells 1-10: −
5 mM EGCG + H3N2 virus, 1 minute, third experiment, dilution factor 10^5
  CPE test, virus replication in cell wells 1-10: −
5 mM EGCG + H3N2 virus, 1 minute, third experiment, dilution factor 10^6
  CPE test, virus replication in cell wells 1-10: −
5 mM EGCG + H3N2 virus, 1 minute, third experiment, dilution factor 10^7
  CPE test, virus replication in cell wells 1-10: −
5 mM EGCG + H3N2 virus, 1 minute, third experiment, dilution factor 10^8
  CPE test, virus replication in cell wells 1-10: −
5 mM EGCG + H3N2 virus, 5 minute, first experiment, dilution factor 10^4
  CPE test, virus replication in cell wells 1-10: − and +
5 mM EGCG + H3N2 virus, 5 minute, first experiment, dilution factor 10^5
  CPE test, virus replication in cell wells 1-10: − and +
5 mM EGCG + H3N2 virus, 5 minute, first experiment, dilution factor 10^6
  CPE test, virus replication in cell wells 1-10: −
5 mM EGCG + H3N2 virus, 5 minute, first experiment, dilution factor 10^7
  CPE test, virus replication in cell wells 1-10: −
5 mM EGCG + H3N2 virus, 5 minute, first experiment, dilution factor 10^8
  CPE test, virus replication in cell wells 1-10: −
5 mM EGCG + H3N2 virus, 5 minute, second experiment, dilution factor 10^3
  CPE test, virus replication in cell wells 1-10: +
5 mM EGCG + H3N2 virus, 5 minute, second experiment, dilution factor 10^4
  CPE test, virus replication in cell wells 1-10: −
5 mM EGCG + H3N2 virus, 5 minute, second experiment, dilution factor 10^5
  CPE test, virus replication in cell wells 1-10: −
5 mM EGCG + H3N2 virus, 5 minute, second experiment, dilution factor 10^6
  CPE test, virus replication in cell wells 1-10: −
5 mM EGCG + H3N2 virus, 5 minute, second experiment, dilution factor 10^7
  CPE test, virus replication in cell wells 1-10: −
5 mM EGCG + H3N2 virus, 5 minute, second experiment, dilution factor 10^8
  CPE test, virus replication in cell wells 1-10: −
5 mM EGCG, H3N2 virus, 1 minute
  inactivation efficiency against the virus: 98.74% and 96.84%
5 mM EGCG, H3N2 virus, 1 minute, three experiments
  average inactivation efficiency against virus: 98.11%
5 mM EGCG, H3N2 virus, 5 minutes
  inactivation efficiency against the virus: 97.49% and 98.74%
5 mM EGCG, H3N2 virus, 5 minutes, two experiments
  average inactivation efficiency against virus: 98.32%
